Laboratory results as given in ChEMBL document CHEMBL3046646, “Regioselective synthesis and cannabinoid receptor binding affinity of N-alkylated 4,5-diaryl-1,2,3-triazoles” (Med Chem Res, 2012).
pKi: −log10 of the molar value.

Molecular target: Cannabinoid receptor 1 (Rattus norvegicus) (UniProt P20272)
Assay: Displacement of [3H][…] from CB1 receptor in Rattus norvegicus (rat) cerebellum homogenate at 1 uM after 2 hr by scintillation counting
Format: tissue-based
Conditions: not given

Chain of Cannabinoid receptor 1 (Rattus norvegicus) (P20272 whole entry): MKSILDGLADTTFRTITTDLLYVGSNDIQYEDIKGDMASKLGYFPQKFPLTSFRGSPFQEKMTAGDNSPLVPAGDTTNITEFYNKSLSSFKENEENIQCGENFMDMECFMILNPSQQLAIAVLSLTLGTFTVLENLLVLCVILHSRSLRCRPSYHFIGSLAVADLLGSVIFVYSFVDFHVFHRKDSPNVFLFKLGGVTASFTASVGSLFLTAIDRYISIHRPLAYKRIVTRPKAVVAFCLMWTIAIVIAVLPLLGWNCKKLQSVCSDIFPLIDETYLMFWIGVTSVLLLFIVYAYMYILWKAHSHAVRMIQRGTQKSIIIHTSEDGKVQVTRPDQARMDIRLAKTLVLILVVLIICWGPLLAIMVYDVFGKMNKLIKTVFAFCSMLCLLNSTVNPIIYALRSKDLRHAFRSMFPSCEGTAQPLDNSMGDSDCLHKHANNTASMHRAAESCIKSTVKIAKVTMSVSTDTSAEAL

| inhibition [%] | SMILES |
| --- | --- |
| 26 | N#CCCn1nc(-c2ccc(Cl)cc2)c(-c2ccc(Cl)cc2Cl)n1 |
| 22 | CCOC(=O)CCn1nc(-c2ccc(Cl)cc2)c(-c2ccc(Cl)cc2Cl)n1 |

Molecular target: Cannabinoid receptor 1 (Rattus norvegicus, UniProt P20272)
Assay: Displacement of [3H][…] from CB1 receptor in Rattus norvegicus (rat) cerebellum homogenate after 2 hr by scintillation counting
Format: tissue-based
Conditions: not given

Chain of Cannabinoid receptor 1 (P20272 whole entry): as above

| Ki | SMILES |
| --- | --- |
| ND(Insoluble) | C=CCn1nnc(-c2ccc(Cl)cc2Cl)c1-c1ccc(Cl)cc1 |
| ND(Insoluble) | CCC/C=C\Cn1nnc(-c2ccc(Cl)cc2Cl)c1-c1ccc(Cl)cc1 |
| ND(Insoluble) | CCCCCCn1nnc(-c2ccc(Cl)cc2Cl)c1-c1ccc(Cl)cc1 |

Same assay, conditions: read-out: Ki

| SMILES | pKi |
| --- | --- |
| Clc1ccc(-c2c(-c3ccc(Cl)cc3Cl)nnn2Cc2ccccc2)cc1 | 6.73 |
| Clc1ccc(-c2nn(Cc3ccccc3)nc2-c2ccc(Cl)cc2Cl)cc1 | 6.64 |
| N#CCn1nc(-c2ccc(Cl)cc2)c(-c2ccc(Cl)cc2Cl)n1 | 6.63 |
| OCCn1nc(-c2ccc(Cl)cc2)c(-c2ccc(Cl)cc2Cl)n1 | 6.18 |
| COC(=O)Cn1nc(-c2ccc(Cl)cc2)c(-c2ccc(Cl)cc2Cl)n1 | 6.07 |
| ClCCn1nc(-c2ccc(Cl)cc2)c(-c2ccc(Cl)cc2Cl)n1 | 7.10 |
| COC(=O)CCn1nc(-c2ccc(Cl)cc2)c(-c2ccc(Cl)cc2Cl)n1 | 5.63 |

The next lines start with the values.

| pKi | SMILES |
| --- | --- |
| 6.79 | OCCn1nnc(-c2ccc(Cl)cc2Cl)c1-c1ccc(Cl)cc1 |
| 6.61 | COC(=O)Cn1nnc(-c2ccc(Cl)cc2Cl)c1-c1ccc(Cl)cc1 |
| 6.82 | CCCn1nnc(-c2ccc(Cl)cc2Cl)c1-c1ccc(Cl)cc1 |
| 7.10 | FCCn1nc(-c2ccc(Cl)cc2)c(-c2ccc(Cl)cc2Cl)n1 |
| 6.38 | FCCn1nnc(-c2ccc(Cl)cc2Cl)c1-c1ccc(Cl)cc1 |

Molecular target: Cannabinoid receptor 1 (Rattus norvegicus) (UniProt P20272)
Assay: Displacement of [3H][…] from CB1 receptor in Rattus norvegicus (rat) cerebellum homogenate at 100 uM after 2 hr by scintillation counting
Format: tissue-based
Conditions: not given

| inhibition [%] | SMILES |
| --- | --- |
| 30 | CCCCOC(=O)n1nc(-c2ccc(Cl)cc2)c(-c2ccc(Cl)cc2Cl)n1 |
